Experimental data published in publication PMC12635456, “In Vivo Inhibition of Dipeptidyl Peptidase 4 and Neprilysin Activity Enables Measurement of GLP-1 Secretion in Male Rats” (Journal of the Endocrine Society, 2025).
Read-outs that look alike come from different tables or passages of the source.

Tests used:
[1] = cited from earlier work
Description: Glucagon-like peptide-1 (GLP-1), secreted from enteroendocrine cells in the gut, enhances glucose-stimulated insulin secretion and reduces appetite.

GLP-1 secretion = test: Oral glucose challenge without inhibitor pretreatment (GLP-1 by RIA and ELISAs); conditions: oral glucose 2 g/kg, no inhibitors
Description: In these experiments it was possible to collect relatively large blood samples (∼500 µL), allowing measurements with a single site RIA directed at the C-terminus of the molecule. The samples were collected at time point 0, 15, 30, and 60 minutes after glucose challenge and treated as already described.
Net area under the curve (nAUC) was calculated using the trapezoid rule; baseline was set to the first data point and peaks above and below the baseline were considered. P < .05 was considered significant. Data are shown as mean ± SEM.

SMILES	Half-life in the circulation ([1]; humans)	Half-life in the circulation ([1]; mice)	Half-life in the circulation ([1]; rats)	Increase in GLP-1 concentration 15 minutes following glucose, C-terminal RIA (GLP-1 secretion) [pmol/L]	Increase in GLP-1 concentration 15 minutes following glucose, Mercodia total ELISA (GLP-1 secretion)	Total GLP-1 plasma concentration 15 minutes after glucose, RIA (GLP-1 secretion; in-house C-terminal RIA 89390, mean ± SEM, n = 5-6, P < .02 vs baseline) [pmol/L]	Intact GLP-1 plasma concentration 15 minutes after glucose, Alpco ELISA (GLP-1 secretion; mean ± SEM, n = 5-6, P < .008 vs baseline) [pmol/L]	Total GLP-1 plasma concentration 15 minutes after glucose, Mercodia ELISA (GLP-1 secretion; mean ± SEM, n = 5-6, P < .02 vs baseline) [pmol/L]
CC[C@H](C)[C@H](NC(=O)[C@H](Cc1ccccc1)NC(=O)[C@H](CCC(=O)O)NC(=O)[C@H](CCCCN)NC(=O)[C@H](C)NC(=O)[C@H](C)NC(=O)[C@H](CCC(N)=O)NC(=O)CNC(=O)[C@H](CCC(=O)O)NC(=O)[C@H](CC(C)C)NC(=O)[C@H](Cc1ccc(O)cc1)NC(=O)[C@H](CO)NC(=O)[C@H](CO)NC(=O)[C@@H](NC(=O)[C@H](CC(=O)O)NC(=O)[C@H](CO)NC(=O)[C@@H](NC(=O)[C@H](Cc1ccccc1)NC(=O)[C@@H](NC(=O)CNC(=O)[C@H](CCC(=O)O)NC(=O)[C@H](C)NC(=O)[C@@H](N)Cc1c[nH]cn1)[C@@H](C)O)[C@@H](C)O)C(C)C)C(=O)N[C@@H](C)C(=O)N[C@@H](Cc1c[nH]c2ccccc12)C(=O)N[C@@H](CC(C)C)C(=O)N[C@H](C(=O)N[C@@H](CCCCN)C(=O)NCC(=O)N[C@@H](CCCNC(=N)N)C(N)=O)C(C)C [GLP-1(7-36)NH2]	a few minutes	a few minutes	a few minutes					
OC[C@H]1OC(O)[C@H](O)[C@@H](O)[C@@H]1O (some centres unmarked) [glucose]				~15	around 5 pmol/L	43.1 ± 3.7	0.8 ± 0.07	10.5 ± 1.8
